Point of comparison: Cc1cc(C)c2nc(NCC3COC(C)(C)O3)n(Cc3nc(C)ccc3O)c2c1 (centres undefined), melting point 225 °C. Against it:
- CCCCn1sc2nc3ccccc3n2c1=O — lower, 153 to 154 °C
- Cc1cc(SCc2cccc3[nH]c(-c4ccc(C(F)(F)F)cc4)cc23)ccc1OCC(=O)O — lower, 85 to 88 °C
- CCCC(=O)OCn1cc(F)c(=O)[nH]c1=O — lower, 96 to 98 °C
- O=C1c2ccccc2C(=O)N1CCc1cn(C2OCC(O)C(O)C2O)c(=O)[nH]c1=O (centres undefined) — lower, 137 °C
- Cc1nc(C(C)c2ccccc2)c2c(c1O)COC2 (centres undefined) — lower, 163 °C
- O=C(O)c1nc(Sc2ccccc2)ccc1Sc1ccccc1 — lower, 131 to 132 °C
- Cn1ncnc1-c1cc(S(C)(=O)=O)c2[nH]c(=O)ccc2c1 — higher, 226 to 232 °C
- Cc1ccc(C2C(=O)Oc3c2cc(C(C)(C)C)cc3C(C)(C)C)cc1 (centres undefined) — lower, 130 to 133 °C
- CCC(=O)NCC1CC1c1cccc2nn(CC)cc12 (centres undefined) — lower, 114 to 115 °C
- COc1ccc(C(=O)c2c(CBr)n(C(C)=O)c(=O)n2C(C)=O)cc1 — lower, 135 to 136 °C
- O=C(O)CCNC(=O)C=Cc1ccccc1 — lower, 140 to 144 °C
- COCc1cccc(COC)c1SSc1c(COC)cccc1COC — lower, 89 to 90 °C
- CN(C)C(=O)OCCOc1ccc(CC(NC(=O)OC(C)(C)C)C(O)CNCC(O)C(Cc2ccccc2)NC(=O)O)cc1 (centres undefined) — lower, 128 to 132 °C
- COc1ccc(C(=O)Nc2ccccc2)cc1NCc1ccc([N+](=O)[O-])c(O)c1 — lower, 140 to 143 °C
- C=CCn1c(=O)c(C(=O)OCC)c(N)c2cccnc21 — lower, 161 to 164 °C
- CCc1nc2cccc(C(=O)O)c2n1Cc1ccc(-c2ccccc2-c2nnn[nH]2)cc1 — higher, 261 to 262 °C
- c1ccc(-c2ccc3nc(-c4ccccc4)oc3n2)cc1 — lower, 151 to 152 °C
- CC(=O)Oc1ccc(C(=O)Nc2ccc3ccc(Cl)nc3n2)cc1 — lower, 220 °C
- O=C1c2ccc(Cl)cc2C(=O)N1C1CCN(CCc2c[nH]c3ccccc23)CC1 — lower, 188 to 190 °C
- O=C1C=c2cc3c(cc2CC1=O)=CCO3 — lower, 158 to 160 °C
- COC(=O)CCc1cc2cc(Cl)ccc2n1S(=O)(=O)c1ccc(F)cc1 — lower, 129 to 131 °C
- Cc1cccc(NC(=O)NCC(=O)N(CC(=O)OC(C)(C)C)c2ccccc2-c2ccccc2)c1 — lower, 177 °C
- Cc1nc2c(OCc3c(Cl)ccc(S(=O)(=O)N4CCC[C@H]4C(=O)NCCCNC(=O)c4ccc(C#N)cc4)c3Cl)cccn2c1Cl — lower, 115 °C
- CN1CCN(C2=Nc3cc(F)ccc3N3CCc4cccc2c43)CC1 — lower, 151 to 153 °C
- COc1ccc(C#CC(O)c2cccc(CN(O)C(N)=O)c2)cc1OC (centres undefined) — lower, 146 °C
- N=C(NN)c1ccccc1C(=N)NN — higher, 251 to 253 °C
- CCOC(=O)N1CCN(c2cc3nc(C(C)(C)C)sc3cc2N)CC1 — lower, 215 to 220 °C
- COc1cccc(CC(=O)O)c1OCCCc1cn(-c2ccc(NC(C)=O)cn2)nc1C(C)C — lower, 158 to 159 °C
- COC1=C(c2cccc(C(F)(F)F)c2)C(CCC(=O)O)OC1=O (centres undefined) — lower, 132 °C
- O=C1CCC(c2ccccc2)(c2ccccc2)[C@@H]2CN(C(=O)Cc3ccccc3N3CCCC3)C[C@H]12 (racemic) — lower, 178 °C
- Cc1nc(C(N)=O)c([N+](=O)[O-])n1-c1ccc(Cl)c(Cl)c1 — not separable, > 204 °C
- OCc1ccc2oc(-c3cccs3)nc2c1 — lower, 158 to 159 °C
- Cc1cc2nccn2nc1OCC(C)(C)CCS(N)(=O)=O — lower, 161 to 162 °C
- CCCC=Cc1c(C(C)C)cc(C(C)C)c(CO)c1-c1ccc(F)cc1 — lower, 85 to 95 °C
- Cc1c[nH]c(=O)nc1N — higher, 264 to 269 °C
- O=C(NCl)c1c(C(F)(F)F)cc(Cl)nc1Cl — lower, 136 to 138 °C
- COc1ccc(-c2nc(SCS(C)=O)[nH]c2-c2ccc(OC)cc2)cc1 (centres undefined) — lower, 84.5 to 86.5 °C
- CC(C(=O)O)c1ccc(-c2ccccc2)c(O)c1 (centres undefined) — lower, 112 to 119 °C
- Cc1c[nH]c(C)c1CCC(=O)O — lower, 134 to 136 °C
- O=C(c1ccccc1)c1ccc(-c2nc(COc3ccc(CCCn4ccnc4)cc3)co2)cc1 — lower, 112 to 113 °C
- CN(C(=O)OC(C)(C)C)[C@H](Cc1ccc(Cl)c(Cl)c1)[C@H](O)CC(=O)N[C@@H]1CCCCNC1=O — lower, 187 °C
- CC(CCNC1=Nc2cccc3cccc1c23)c1cccnc1 (centres undefined) — lower, 160 to 163 °C
- COC(=O)c1cc(C#N)cc2c1OC(c1ccccc1)(c1ccccc1)O2 — lower, 141 °C
- CC(C)(C)c1ccc(CNc2nc(Nc3cccc(C(F)(F)F)c3)nc(C(F)(F)F)n2)cc1 — lower, 53 to 55 °C
- CCOC(=O)CCCN(C(=O)CN(C(=O)c1ccc(Cl)cc1)c1c(C)cccc1C)c1c(C)cccc1C — lower, 150 to 151 °C
- C=Cc1cc2ccccc2[nH]1 — lower, 91 °C
- CC(Oc1ccc2nc(NC(=O)NCCC3CCN(C(=O)OC(C)(C)C)CC3)sc2c1)c1c(Cl)ccc(F)c1Cl (centres undefined) — lower, 95 to 105 °C
- Cc1cc(C2=NOC(c3cc(Cl)cc(Cl)c3)(C(F)(F)F)C2)ccc1C(=O)NC1(Cl)N=CC=CN1 (centres undefined) — higher, 231 to 234 °C
- COc1ccc(Cn2c(=O)[nH]c3cc([N+](=O)[O-])ccc3c2=O)cc1 — higher, 244 to 246 °C
- CN1CCN(C(=O)C(c2ccc(Cl)cc2)c2c(Cl)cc(-n3ncc(=O)[nH]c3=O)cc2Cl)CC1 (centres undefined) — higher, 262 °C
- O=C(O)C(Sc1nc2c(s1)CCCC2)c1ccccc1 (centres undefined) — lower, 118 to 120 °C
- CSc1ccc(N=Cc2ccc(Cl)cc2)cc1 — lower, 203 to 205 °C
- Cc1c(SCc2ccc(C(C)(C)C)cc2)cnn(C(C)(C)C)c1=O — lower, 91 to 92 °C
- Nc1sc2c(c1C(=O)c1cccs1)CCN(Cc1ccccc1)C2 — lower, 122 to 123 °C
- COC(=O)Nc1nc(C)cc(OC)n1 — lower, 89 to 92.5 °C
- Cc1cc(-n2ccnc2)c2cccc(OCc3c(Cl)ccc(S(=O)(=O)N4CCC[C@H]4C(=O)N(C)CCCN(C)CCCO)c3Cl)c2n1 — lower, 92 °C
- COc1ccc(C2C3=C(COC3=O)Nc3ccc4nc(S)[nH]c4c32)cc1O (centres undefined) — higher, 334 to 337 °C
- N=C(NCc1ccn(C2=CC3=C(CC2)CCc2[nH]c(=O)c(=O)n(CC(=O)O)c23)c1)Nc1ccccc1 — higher, > 225 °C
- Nc1nc(Cl)cc(OC(F)F)n1 — lower, 118 to 119 °C
- Cc1ccccc1C1(c2ccc(OC(F)F)cc2)N=C(N)N(C)C1=O (centres undefined) — lower, 85 to 90 °C
- Cc1cccc(-c2n[nH]cc2-c2ccc(F)c(-c3ccc(S(=O)(=O)C(F)(F)F)cc3)c2)n1 — lower, 81 to 84 °C
- Cc1nn(-c2ccc(C#N)c(Cl)c2)c(C)c1Cc1ccc(C(=O)NC(C)(C)C)cc1 — lower, 135 to 136 °C
- CC1(C)COC(c2ccc(N)cc2)=N1 — higher, 227 to 230 °C
- NCCNC(=S)Nc1c(Br)cccc1Br — lower, 155 to 157 °C
- Cc1ccccc1-c1ccc(C(=O)N2Cc3ccc(C(=O)NCCCCc4ccccc4)n3Cc3ccccc32)cc1C — lower, 129 to 131 °C
- CC(C)(Sc1cc(C(C)(C)C)c(O)c(C(C)(C)C)c1)Sc1cc(C(C)(C)C)c(OCC[C@H](O)CO)c(C(C)(C)C)c1 — lower, 110 to 112 °C
- COc1ccc2c(ccn2-c2cccc(C#N)c2)c1 — lower, 113 to 115 °C
- CC(C)(C)NCC(O)COc1cc(Cl)ccc1-c1ccc(=S)[nH]n1 (centres undefined) — lower, 195 to 198 °C
- CC(=O)NC1=CC(C)(C)Oc2cc3nonc3cc21 — lower, 218 to 220 °C
- COC(=O)c1nc(-c2ccccc2)ccc1Oc1nc(OC)cc(OC)n1 — lower, 92 to 94 °C
- CC(=O)On1cc(-c2ccccc2)c(=O)c(-c2ccccc2)c1 — lower, 197 to 199 °C
- O=C1NCC(CCc2ccccc2Cl)O1 (centres undefined) — lower, 74 to 75 °C
- O=C(O)C1CCCN2CC(CS)C(=O)N12 (centres undefined) — lower, 146 to 147 °C
- CC1(c2ccccc2)OC(=O)C(Cl)(Cl)C(C(Cl)(Cl)Cl)N1OC(=O)Nc1ccccc1 (centres undefined) — lower, 154 to 157 °C
- COC1=CC(=O)C(=O)C=C1NCCCl — lower, 150 to 152 °C
- CC(=O)N[C@@H](CSC(c1ccccc1)(c1ccccc1)c1ccccc1)C(=O)N1CCSC1 — lower, 197 to 198 °C
- Cc1nc2cnccc2n1-c1ccc(COc2ccccc2C(=O)O)cc1 — lower, 217 to 219 °C
- CCC(C)(C)Nc1c(NCc2cc3cc(C#N)ccc3o2)c(=O)c1=O — lower, 171 to 173 °C
- Clc1nc(Cl)nc(-c2ccccc2)n1 — lower, 118 to 120 °C
- CN(C)C(=O)c1c(-c2ccccc2F)ccc2ccccc12 — lower, 105 to 106 °C
- CCC(=O)Nc1cc(-c2c(-c3cccc(Cl)c3)nc3cccnn23)ccn1 — lower, 192 to 193 °C
- CCc1nn(C2CCCC2)c2c1CCNC2=O — lower, 152 to 153 °C
- CCOc1ccccc1CN1CCC(=O)C(C(c2ccc(F)cc2)c2ccc(F)cc2)C1 (centres undefined) — lower, 137 to 138 °C
- CC(=NC1CCCCC1)N(C)C=Nc1ccc(C)cc1C — lower, 37 to 39 °C
- CC(C)(C)OC(=O)[C@H]1CC[C@H](c2ccccc2)N1C(=O)CNC(=O)Nc1cccc(C(=O)O)c1 (racemic) — higher, 236 °C
- COc1ccc(C(=CC=O)c2ccc(OC)c(OC)c2)cc1OC — lower, 129 to 130 °C
- Cc1cc(Br)cnc1CCCCNc1ncc(Cc2ccn(C)c(=O)c2)c(=O)[nH]1 — lower, 203 to 204 °C
- COC(=O)CCc1cc2cc(C(F)(F)F)ccc2[nH]1 — lower, 106 to 108 °C
- CCOC(=O)c1cc(C#N)c(C)nc1Cl — lower, 43 to 45 °C
- O=C(O)c1ccc(OCCNC(=O)C2Cc3ccccc3N2S(=O)(=O)c2ccc(-c3ccc(F)cc3)cc2)cc1F (centres undefined) — lower, 109 to 113 °C
- CCCc1nn(C)c2c(=O)[nH]c(-c3cc(S(C)(=O)=O)ccc3OCC)nc12 — higher, 235 to 236 °C
- O=C(O)CCC(=O)c1cc(Br)cc(Br)c1 — lower, 137 to 138 °C
- Cc1ccc(-c2ccc(Cl)c(C(=O)NCC34CC5CC(CC(C5)C3)C4)c2)c(C(=O)O)c1 — lower, 214 to 216 °C
- O=C(CO/N=C/c1ccc([N+](=O)[O-])c(CO)c1)N1CCN(CC2CCCCC2)CC1 — lower, 170 °C
- Cc1cc(C)cc(N(CCCC(N)=O)Cc2ccc3nc(NCCCN4CCOCC4)n(Cc4ncccc4O)c3c2)c1 — lower, 170 °C
- CCOC(=O)C1CSC(COc2ccc(OC)cc2)N1C(=O)CCl (centres undefined) — lower, 69 to 71 °C
- CCOC(=O)N(c1cccc(C(F)(F)F)c1)c1ccccc1-n1nc(C(=O)O)nc1CCl — lower, 100 to 108 °C
- CCN1CCN(C(=O)c2ccc(N)cc2Cl)CC1 — lower, 123 to 124 °C
